In patent US20230108906A1, “SUBSTITUTED BICYCLIC AND TRICYCLIC UREAS AND AMIDES, ANALOGUES THEREOF, AND METHODS USING SAME” (Arbutus Biopharma Corporation, priority 2019, published 2023):
pEC50: −log10 of the molar value. Like-named read-outs stand apart in the source and are kept apart here.

Test system: HBV rcDNA in HepDE19 cells
Experiment: HepDE19 assay with bDNA quantitation of HBV rcDNA
Type: cell-based, hepatitis B virus (HBV)
Settings: inhibition of rcDNA formation in HepDE19 cells (HepG2 derived), Tet-free medium, 7 day incubation, Quantigene 2.0 bDNA readout, top concentration 25 μM, read-out: DE-19bDNA EC50
Procedure: HepDE19 Assay with bDNA Quantitation of HBV rcDNA:
HepDE19 cell culture system is a HepG2 (human hepatocarcinoma) derived cell line that supports HBV DNA replication and cccDNA formation in a tetracycline (Tet)-regulated manner and produces HBV rcDNA and a detectable reporter molecule dependent on the production and maintenance of cccDNA (Guo, et al., 2007, J. Virol. 81:12472-12484).
HepDE19 (50,000 cells/well) were plated in 96-well collagen-coated tissue-culture treated microtiter plates in DMEM/F12 medium supplemented with 10% fetal bovine serum, 1% penicillin-streptomycin and 1 μg/mL tetracycline and incubated in a humidified incubator at 37° C. and 5% CO2 overnight. Next day, the cells were switched to fresh medium without tetracycline and incubated for 4 hours at 37° C. and 5% CO2. The cells were treated with fresh Tet-free medium with compounds at concentrations starting at 25 μM and a serial, […], 8-point, titration series in duplicate. The final DMSO concentration in the assay was 0.5%. The plates were incubated for 7 days in a humidified incubator at 37° C. and 5% CO2. Following a 7 day-incubation, the level of rcDNA present in the inhibitor-treated wells was measured using a Quantigene 2.0 bDNA assay kit (Affymetrix, Santa Clara, Calif.) with HBV specific custom probe set and manufacturers instructions. Concurrently, the effect of compounds on cell viability was assessed using replicate plates, plated at a density of 5,000 cells/well and incubated for 4 days, to determine the ATP content as a measure of cell viability using the cell-titer glo reagent (CTG; Promega Corporation, Madison, Wis.) as per manufacturer's instructions. The plates were read using a Victor luminescence plate reader (PerkinElmer Model 1420 Multilabel counter) and the relative luminescence units (RLU) data generated from each well was calculated as % inhibition of the untreated control wells and analyzed using XL-Fit module in Microsoft Excel to determine EC50 and EC90 (bDNA) and CC50 (CTG) values using a 4-parameter curve fitting algorithm.
Representative compounds of the disclosure were tested for their abilities to inhibit formation of relaxed circular DNA (rcDNA) in a HepDE19 assay, as described elsewhere herein.

[1] = Hepatitis B virus, HepDE19, 168 h

Row | SMILES | pEC50 [1] | pEC50
1 | CN(C(=O)Nc1ccc(F)c(Cl)c1)C1CCCc2[nH]c(=O)c3ccccc3c21 (racemic) [Compound 6, 3-(3-Chloro-4-fluorophenyl)-1-methyl-1-(6-oxo-1,2,3,4,5,6-hexahydrophenanthridin-1-yl)urea] | 7.10 | 
2 | CN(C(=O)Nc1ccc(F)c(Cl)c1)C1CCCc2[nH]c(=O)c3cc(F)c(F)cc3c21 (racemic) [Compound 15, 3-(3-Chloro-4-fluorophenyl)-1-(8,9-difluoro-6-oxo-1,2,3,4,5,6-hexahydrophenanthridin-1-yl)-1-methylurea] | 7.70 | 
3 | CN(C(=O)Nc1ccc(F)c(Cl)c1)C1COCc2[nH]c(=O)c3ccccc3c21 (racemic) [Compound 18, 3-(3-Chloro-4-fluorophenyl)-1-methyl-1-(6-oxo-1,4,5,6-tetrahydro-2H-pyrano[3,4-c]isoquinolin-1-yl)urea] | 7.52 | 
4 | CN(C(=O)Nc1ccc(F)c(Cl)c1)C1COCc2[nH]c(=O)c3cc(F)ccc3c21 (racemic) [Compound 23, 3-(3-Chloro-4-fluorophenyl)-1-(8-fluoro-6-oxo-1,4,5,6-tetrahydro-2H-pyrano[3,4-c]isoquinolin-1-yl)-1-methylurea] | 7.70 | 
5 | CN(C(=O)Nc1ccc(F)c(Cl)c1)C1COCc2[nH]c(=O)c3cc(F)c(F)cc3c21 (racemic) [Compound 24, 3-(3-Chloro-4-fluorophenyl)-1-(8,9-difluoro-6-oxo-1,4,5,6-tetrahydro-2H-pyrano[3,4-c]isoquinolin-1-yl)-1-methylurea] | 8.00 | 
6 | CC1Cc2[nH]c(=O)c3ccccc3c2C(N(C)C(=O)Nc2ccc(F)c(Cl)c2)C1 (racemic) [Compound 26, 3-(3-Chloro-4-fluorophenyl)-1-methyl-1-(3-methyl-6-oxo-1,2,3,4,5,6-hexahydrophenanthridin-1-yl)urea] | 5.54 | 
7 | CCN(C(=O)Nc1ccc(F)c(Cl)c1)C1COCc2[nH]c(=O)c3cc(F)c(F)cc3c21 (racemic) [Compound 45, 3-(3-Chloro-4-fluorophenyl)-1-(8,9-difluoro-6-oxo-1,4,5,6-tetrahydro-2H-pyrano[3,4-c]isoquinolin-1-yl)-1-ethylurea] | 8.00 | 
8 | CN(C(=O)Nc1ccc(F)c(C#N)c1)C1COCc2[nH]c(=O)c3cc(F)c(F)cc3c21 (racemic) [Compound 106, 3-(3-Cyano-4-fluorophenyl)-1-(8,9-difluoro-6-oxo-1,4,5,6-tetrahydro-2H-pyrano[3,4-c]isoquinolin-1-yl)-1-methylurea] | 7.70 | 
9 | CN(C(=O)Nc1ccc(F)c(Cl)c1)C1COC(=O)c2[nH]c(=O)c3cc(F)c(F)cc3c21 (racemic) [Compound 152, 3-(3-Chloro-4-Fluorophenyl)-1-(8,9-difluoro-4,6-dioxo-1,4,5,6-tetrahydro-2H-pyrano[3,4-c]isoquinolin-1-yl)-1-methylurea] | 7.70 | 
10 | CN(C(=O)Nc1ccc(F)c(C#N)c1)C1CS(=O)(=O)Cc2[nH]c(=O)c3cc(F)ccc3c21 (racemic) [Compound 215, 3-(3-Cyano-4-fluorophenyl)-1-(8-fluoro-3,3-dioxido-6-oxo-1,4,5,6-tetrahydro-2H-thiopyrano[3,4-c]isoquinolin-1-yl)-1-methylurea] | ≤ 4.60 | 
11 | CN(C(=O)Nc1ccc(F)c(C(F)F)c1)C1COCc2nc(NCCN)c3cc(F)c(F)cc3c21 (racemic) [Compound 239, 1-(6-((2-Aminoethyl)amino)-8,9-difluoro-1,4-dihydro-2H-pyrano[3,4-c]isoquinolin-1-yl)-3-(3-(difluoromethyl)-4-fluorophenyl)-1-methylurea] | 6.52 | 
12 | CN(C(=O)Nc1ccc(F)c(Cl)c1)C1CCCc2[nH]c(=O)c3ccccc3c21 (single isomer, unassigned) [Compound 16, 3-(3-Chloro-4-fluorophenyl)-1-methyl-1-(6-oxo-1,2,3,4,5,6-hexahydrophenanthridin-1-yl)urea] |  | 6.12
13 | CN(C(=O)Nc1ccc(F)c(Cl)c1)C1CCCc2[nH]c(=O)c3ccccc3c21 (single isomer, unassigned) [Compound 17, 3-(3-Chloro-4-fluorophenyl)-1-methyl-1-(6-oxo-1,2,3,4,5,6-hexahydrophenanthridin-1-yl)urea] |  | 7.30
14 | CN(C(=O)Nc1ccc(F)c(Cl)c1)C1COCc2[nH]c(=O)c3ccccc3c21 (single isomer, unassigned) [Compound 36, 3-(3-Chloro-4-fluorophenyl)-1-methyl-1-(6-oxo-1,4,5,6-tetrahydro-2H-pyrano[3,4-c]isoquinolin-1-yl)urea] |  | 5.34
15 | CN(C(=O)Nc1ccc(F)c(Cl)c1)C1COCc2[nH]c(=O)c3ccccc3c21 (single isomer, unassigned) [Compound 37, 3-(3-Chloro-4-fluorophenyl)-1-methyl-1-(6-oxo-1,4,5,6-tetrahydro-2H-pyrano[3,4-c]isoquinolin-1-yl)urea] |  | 7.52
16 | CN(C(=O)Nc1ccc(F)c(Cl)c1)[C@H]1COCc2[nH]c(=O)c3cc(F)ccc3c21 (single isomer, unassigned) [Compound 40] | 6.00 | 
17 | CN(C(=O)Nc1ccc(F)c(Cl)c1)[C@@H]1COCc2[nH]c(=O)c3cc(F)ccc3c21 (single isomer, unassigned) [Compound 41] | 8.00 | 
18 | CN(C(=O)Nc1ccc(F)c(Cl)c1)C1CCCc2[nH]c(=O)c3c(c21)CCCC3 (single isomer, unassigned) [Compound 46, 3-(3-Chloro-4-fluorophenyl)-1-methyl-1-(6-oxo-1,2,3,4,5,6,7,8,9,10-decahydrophenanthridin-1-yl)urea] |  | 5.92
19 | CN(C(=O)Nc1ccc(F)c(Cl)c1)C1CCCc2[nH]c(=O)c3c(c21)CCCC3 (single isomer, unassigned) [Compound 47, 3-(3-Chloro-4-fluorophenyl)-1-methyl-1-(6-oxo-1,2,3,4,5,6,7,8,9,10-decahydrophenanthridin-1-yl)urea] |  | 7.22
20 | CN(C(=O)Nc1ccc(F)c(F)c1)C1CCCc2[nH]c(=O)c3c(c21)CCCC3 (single isomer, unassigned) [Compound 48, 3-(3,4-Difluorophenyl)-1-methyl-1-(6-oxo-1,2,3,4,5,6,7,8,9,10-decahydrophenanthridin-1-yl)urea] |  | 5.51
21 | CN(C(=O)Nc1ccc(F)c(F)c1)C1CCCc2[nH]c(=O)c3c(c21)CCCC3 (single isomer, unassigned) [Compound 49, 3-(3,4-Difluorophenyl)-1-methyl-1-(6-oxo-1,2,3,4,5,6,7,8,9,10-decahydrophenanthridin-1-yl)urea] |  | 6.80
22 | CCN(C(=O)Nc1ccc(F)c(F)c1)C1CCCc2[nH]c(=O)c3c(c21)CCCC3 (single isomer, unassigned) [Compound 50, 3-(3,4-Difluorophenyl)-1-ethyl-1-(6-oxo-1,2,3,4,5,6,7,8,9,10-decahydrophenanthridin-1-yl)urea] |  | 5.17
23 | CCN(C(=O)Nc1ccc(F)c(F)c1)C1CCCc2[nH]c(=O)c3c(c21)CCCC3 (single isomer, unassigned) [Compound 51, 3-(3,4-Difluorophenyl)-1-ethyl-1-(6-oxo-1,2,3,4,5,6,7,8,9,10-decahydrophenanthridin-1-yl)urea] |  | 7.00
24 | CCN(C(=O)Nc1ccc(F)c(Cl)c1)C1CCCc2[nH]c(=O)c3c(c21)CCCC3 (single isomer, unassigned) [Compound 53, 3-(3-Chloro-4-fluorophenyl)-1-ethyl-1-(6-oxo-1,2,3,4,5,6,7,8,9,10-decahydrophenanthridin-1-yl)urea] |  | 5.59
